Reference: patent publication US20080145433A1 (GILEAD COLORADO, INC., priority 2006, published 2008)
Like-named read-outs stand apart in the source and are kept apart here.

Assays:
ETA [1] = molecular target: T1, ETA (Homo sapiens, UniProt P25101); settings: Riechers et al (1996); read-out: affinity for ETA (KiA); cited from earlier work
T1 sequence (P25101 21-427): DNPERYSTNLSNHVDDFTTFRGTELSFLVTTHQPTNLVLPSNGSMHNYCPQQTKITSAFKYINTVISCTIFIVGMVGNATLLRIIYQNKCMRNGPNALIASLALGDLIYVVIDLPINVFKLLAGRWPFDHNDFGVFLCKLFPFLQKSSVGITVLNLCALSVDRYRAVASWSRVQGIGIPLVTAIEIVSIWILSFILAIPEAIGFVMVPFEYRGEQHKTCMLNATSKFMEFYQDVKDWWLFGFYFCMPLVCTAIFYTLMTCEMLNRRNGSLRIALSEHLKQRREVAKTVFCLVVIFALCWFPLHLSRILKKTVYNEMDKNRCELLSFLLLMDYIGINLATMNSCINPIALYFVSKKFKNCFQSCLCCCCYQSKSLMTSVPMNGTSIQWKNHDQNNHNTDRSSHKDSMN

ETB [2] = molecular target: T2, ETB (Homo sapiens, UniProt P24530); experiment: 125[I]-endothelin-1 receptor binding cold ligand competition curves in human myocardial membranes (ETB); parameters: human myocardial membranes prepared from failing and non-failing left ventricles; from tissue; host or cells: human left ventricular myocardium (failing and non-failing), membranes; settings: 10 μM Gpp(NH)p, 4-hour incubation, steady-state binding, mean of 8 assays
T2 sequence (P24530 27-442): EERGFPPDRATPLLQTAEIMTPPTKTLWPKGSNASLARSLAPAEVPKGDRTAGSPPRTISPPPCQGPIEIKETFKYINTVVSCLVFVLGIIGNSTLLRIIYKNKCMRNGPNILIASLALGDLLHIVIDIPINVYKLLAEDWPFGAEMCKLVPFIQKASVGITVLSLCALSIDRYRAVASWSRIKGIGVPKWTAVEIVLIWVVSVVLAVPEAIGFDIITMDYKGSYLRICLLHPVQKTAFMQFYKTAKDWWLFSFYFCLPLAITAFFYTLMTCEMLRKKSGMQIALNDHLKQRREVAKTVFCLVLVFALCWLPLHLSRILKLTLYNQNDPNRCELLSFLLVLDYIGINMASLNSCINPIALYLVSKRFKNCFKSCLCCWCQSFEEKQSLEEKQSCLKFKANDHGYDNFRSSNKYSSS

ETA [3] = molecular target: T1, ETA; settings: Lip (2001); cited from earlier work
ETA [4] = molecular target: T1, ETA; experiment: 125[I]-endothelin-1 receptor binding cold ligand competition curves in human myocardial membranes (ETA); parameters: human myocardial membranes prepared from failing and non-failing left ventricles; from tissue; host or cells: human left ventricular myocardium (failing and non-failing), membranes; settings: mean of 8 assays
[5] = published values, Boss et al. (2001); cited from earlier work
[6] = PK of darusentan tablets, single oral dose, congestive heart failure patients (Example 3); type: in vivo, human; settings: CHF patients, single oral doses 10-300 mg
Description: This was a multi-center, prospective, uncontrolled clinical trial. […] At least 12 patients received each dose, in addition to their normal medication for CHF.
Arithmetic means and standard deviations of Cmax, Tmax and AUC, based on individual values of these parameters calculated by standard PK methods, are presented in Table 3. As this was a single dose study, Cmin was not determined.

ETB [7] = molecular target: T2, ETB; settings: Riechers et al (1996); read-out: affinity for ETB (KiB); cited from earlier work
ETA [8] = molecular target: T1, ETA; experiment: ETA receptor affinity reported by Riechers et al (1996); type: binding; settings: calculated from Riechers et al (1996) data

COc1cc(OC)nc(O[C@@H](C(=O)O)C(OC)(c2ccccc2)c2ccccc2)n1 [less potent enantiomer]
Ki (ETA [1]): 150 nM

COc1cc(OC)nc(O[C@H](C(=O)O)C(OC)(c2ccccc2)c2ccccc2)n1 [darusentan, (+)-(S)-2-(4,6-dimethoxypyrimidin-2-yloxy)-3-methoxy-3,3-diphenylpropionic acid]
Ki (ETB [2]): 216 ± 85 nM | ETA/ETB selectivity (ETA [3]): about 160 | Ki (ETA [1]): 3 nM | Ki (ETA [4]; 10 μM Gpp(NH)p, 4-hour incubation, steady-state binding): 0.178 ± 0.055 nM | ETA selectivity (fold) (ETA [4]): 1181 ± 148 fold | T1/2 [5]: 10 to 12 h | Pharmacokinetics: dose dependence of Cmax and AUC [6]: appeared to be linear

COc1cc(OC)nc(OC(C(=O)O)C(OC)(c2ccccc2)c2ccccc2)n1 (racemic) [racemate, 2-(4,6-dimethoxypyrimidin-2-yloxy)-3-methoxy-3,3-diphenylpropionic acid]
Ki (ETB [7]): 371 nM | ETA/ETB selectivity (KiB/KiA) (ETA [8]): about 62 | Ki (ETA [1]): 6 nM
